Assays:
primary cortical neurons = test: Primary cortical neurons under paraquat oxidative stress, neuron number; format: cell-based; settings: n=5
Text: Quantification of neuron number following oxidative stress from the redox cycling compound paraquat in primary cortical neurons.

HT22 cells [1] = test: Glutamate challenge of HT22 neuronal cells, viability; format: cell-based; settings: for protective activity of related molecules: up to 1 μM, glutamate challenged HT22 cells
Experimental: An in vitro assay to recapitulate key aspects of the acute KA model was established. In this case, unconcentrated ACM was applied to the glutamate sensitive neuronal cell line HT22 (66, 67). Glutamate challenge of 5 mM was titrated to induce 60-80% cell death (ie: 20-40% survival). […] The media was concentrated for proteomic analyses.
LXA4 and LXB4 promote direct neuroprotective signaling. To the inventor's knowledge, a role for lipoxins as direct neuroprotective or neurotrophic factors has not been reported. Although their established anti-inflammatory actions extend to the CNS (29-32). However, it was hypothesized they may have indirect protective effects. In order to test whether the protective activity was direct or indirect, LXA4 or LXB4 was applied to neuronal cells in an established in vitro assay.
There is no established receptor for LXB4. However, LXB4 shares structural homology with LXA4 and the DHA-derived resolving D2 (RvD2), which mediate their actions via FPR2 or GPR18 (74), respectively. Therefore, it was assessed whether specific receptor antagonists for FPR2 or GPR18 could block LXB4 mediated protection.
As shown in FIG. 14 lipoxin neuroprotection is dose responsive. Dose responses were generated for LXA4 (open circles) and LXB4 (closed circles) in HT22 cells exposed to glutamate stress, followed by nonlinear regression analyses.

HT22 cells [2] = test: Mitosox mitochondrial oxidative stress in glutamate challenged HT22 cells; format: cell-based; settings: 1 μM, HT22 cells challenged with glutamate, vs vehicle
Experimental: HT22 cells challenged with glutamate were then assayed for mitochondrial oxidative stress using the Mitosox reagent, in combination with 1 μM LXA4, LXB4, and the LXA4 receptor ALX/FPR2 agonists Quinc-1 and Mmk-1.

[3] = tested on: retinal ganglion cell neurons (RGCs); test: Mouse acute retinal insult model (intravitreal kainic acid), RGC survival / GCL apoptosis; format: in vivo
Experimental: Male C57BLL/6 mice, 4-6 weeks of age, were purchased from Taconic or Jackson labs. All experimental protocols were approved by the UHN and UC Berkeley ACUC in accordance with applicable regulations. Mice were anesthetized by intraperitoneal injection of ketamine/xylazine. Intravitreal injections with 10 mM kainic acid (KA) were performed as previously described (45). Briefly, a 30-gauge needle was inserted tangentially into the vitreous and replaced with a Hamilton syringe to inject a volume of 2 μL, followed by application of ophthalmic antibiotic ointment (BNP, Vetoquinol). In some experiments, 10× concentrated ACM or test compounds were injected intravitreally one hour prior to the KA injection in concentrations as follows: LXA4 and LXB4 at 10 μM, Zileuton at 2 μg/ul, and WRW4 at 15 μM, all dissolved in PBS. Mice were euthanized by CO2 asphyxiation 18 hours post KA treatment and the eyes fixed in 4% paraformaldehyde. In all experiments n refers to the number of animals tested.
To quantify the extent of apoptosis, a well-established method was used to count the number of TUNEL-positive nuclei in the ganglion cell layer (GCL) and expressed it as a fraction of the total GCL nuclei (50-54). TUNEL labeling was performed according to the manufacturer's instructions (DeadEnd; Promega). Briefly, cryostat sections were fixed with 4% PFA for 5 minutes and washed in PBS. Equilibration buffer was added, and rTdT reaction mix was applied to each slide and incubated at 37° C. for 60 min. Following the rTdT reaction, slides were washed in 2×SSC and PBS and finally mounted with glycerol-based medium. For RGC survival, RBPMS-positive cells in the GCL were counted and expressed as a fraction of GCL nuclei. For each eye, at least five central retinal sections were analyzed at the level of the optic nerve stretching to each ora serrata, and the results averaged, as previously described (42).
In order to test the influence of the transplanted cells on inner retinal pathology, RA's were transplanted as above. After 16 days retinas were challenged with an acute metabolic injury by injection of kainic acid (KA). […]
Retinal astrocyte neuroprotection is mediated through secreted factors that include a small molecule component enriched in LXA4 and LXB4. […] This time, survival of RGCs was specifically assessed by probing for the selective marker RBPMS, along with complementary TUNEL staining, and quantified as previously. As expected, extensive RGC loss was detected in KA challenged eyes injected with cell-free control media incubated under the same conditions as ACM (FIG. 2A). […]

| Structure (SMILES) | neuron number following oxidative stress from paraquat (primary cortical neurons) | protective activity of related molecules (HT22 cells [1]) | other results |
| --- | --- | --- | --- |
| CCCCC[C@H](O)/C=C/C=C\C/C=C\C/C=C\CCCC(=O)O [15-HETE, reference compound] | no protection | no protective activity |  |
| C=C(C)[C@@H]1CCC(C)=C[C@H]1c1c(OC)cc(C)cc1OC [O-1918, reference compound] |  |  | block of LXB4 protective activity by receptor antagonist (HT22 cells [1]; LXB4 at 500 nM, increasing μM concentrations of antagonist): did not block LXB4 protective activity |
| CCCCOc1ccc(C(=O)NN2C(=O)c3ccccc3NC2c2ccc(OC)cc2)cc1 (centres unmarked) [Quinc-1, reference compound] |  |  | mitochondrial oxidative stress (Mitosox) (HT22 cells [2]): reduce mitochondrial oxidative stress |
| CC/C=C\C[C@H](O)[C@H](O)/C=C/C=C/C=C\C=C\[C@@H](O)C/C=C\CCC(=O)O [RvD2, reference compound] | no protection | no protective activity |  |
| CC(c1cc2ccccc2s1)N(O)C(N)=O (centres unmarked) [Zileuton, reference compound] |  |  | exacerbation of RGC loss in response to KA challenge compared to vehicle ([3]; intravitreal inhibitor prior to KA, Zileuton 10 μM or 2 μg/ul, WRW4 15 μM): 60%; effect on RGC numbers, drug alone ([3]; uninjured (naive) eyes, intravitreal, no KA, RBPMS counts): no effect |
